Test results as given in patent US20240101664A1, “TREATMENT OF PERITONEAL, PLEURAL, AND PERICARDIUM ADHESIONS” (UTI LIMITED PARTNERSHIP, priority 2020, published 2024).

How the values were obtained:
[1] = test system: peritoneal cavity macrophages; assay: Aggregometry of isolated peritoneal macrophages; type: cell-based, mouse; conditions: 37° C., 400 rpm
Description: Macrophages were isolated by peritoneal lavage as described above with the use of 2 mM EDTA containing HBSS instead of PBS. Macrophages were centrifuged at 300 g for 5 min in a 50-ml polystyrene tube. The pellet (with approximately 100 μl of fluid remaining with 3×10^6 cells) was diluted in HBSS containing 2 mM Ca^2+ to a final volume of 400 μl. It was then transferred to a aggregometry cuvette, which was warmed to 37° C. and continuously stirred (400 rpm). Light transmission was recorded on a 700 Whole Blood/Optical Lumi-Aggregometer (Chrono-log) and was expressed in arbitrary units with buffer representing 100% transmission and washed macrophage suspension 0% transmission, respectively. Agonists and calcium were added to reach a Ca^2+ concentration of 4 mM total or 2 mM free calcium in a buffer containing 2 mM EDTA. The preparation of platelet aggregometry was performed as previously described (53). Washed platelets (50 μl with 5×10^5 platelets per microliter) were diluted into 110 μl of Tyrode-HEPES buffer containing 2 mM Ca^2+ and 100 μg/ml human fibrinogen. Agonists (ATP, thrombospondin) were added at the indicated concentrations to the continuously stirred platelet suspension. Murine neutrophils were isolated from the bone marrow of wild-type C57Bl/6, mice as previously described (46). Briefly, bone marrow was collected from the femurs and tibias of euthanized mice, and neutrophils were isolated using a discontinuous Percoll gradient consisting of a Percoll solution (9 ml of Percoll and 1 ml 10× of HBSS) diluted to 72%, 64%, and 52% in 1×HBSS. Following centrifugation, the neutrophil band was removed and washed in HBSS. Cell pellets were resuspended in HBSS containing either 2 mM Ca2^+ or EDTA. Aggregometry was performed as described above.

[2] = test system: Gata6+ cavity macrophages; assay: Open-pouch intravital microscopy: cavity macrophage recruitment/aggregation at transmesothelial laser injury; type: in vivo, mouse; conditions: for number of macrophages attaching/aggregating at the injury (normalized macrophage count): 30 min post transmesothelial laser injury, intraperitoneal treatment 20 min before
Description: The following neutralizing antibodies (versus isotype controls) and reagents were intraperitoneally tested for their effect on macrophage recruitment: anti-mouse CD18 (100 μg per mouse, GAME-46, BD Pharmingen)+anti-mouse CD29 (100 μg per mouse, HM β31-1, BD Pharmingen) versus isotype rat IgG1, κ (100 μg per mouse, BioXcell)+hamster IgG (100 μg per mouse, eBioscience); anti-mouse CD162 (100 μg per mouse, 4RA10, BD Pharmingen) versus isotype rat IgG1 (100 μg per mouse, eBioscience); anti-human CD9 (10 μg per mouse, ALB 6, Santa Cruz) versus isotype mouse IgG1 (BD Biosciences). Heparin (Sandoz) was diluted in sterile saline to reach final dose of 100-1000 U per mouse. Argatroban (Sigma-Aldrich) was dissolved in DMSO at 20 mg/ml and diluted with saline to reach a final concentration of 300 μg per mouse. Hirudin (Multiplate Hirudin Blood Tube, Roche) was dissolved in saline and injected intraperitoneally at a dose of 1 tube per mouse. Polyinosinic acid (poly(I)) and polycytidylic acid (poly(C)) were purchased as potassium salt (Sigma-Aldrich) and dissolved in double-distilled water according to manufacturer's instructions to 5 mg/ml and 20 mg/ml, respectively. Immediately before experiments, the poly(C) stock solution was diluted with double-distilled water to a final concentration of 5 mg/ml. Both poly(I) and poly(C) were then diluted with saline to reach a final dose of 250 μg per mouse. A total of […] Anti-mouse Marco antibody (ED31, Biorad MCA1849) versus rat IgG1 Isotype control (eBRG1, eBioscience 16-4301-85) was injected intraperitoneally in a total volume of 140 μl PBS per mouse. A volume of 100 μl anti-mouse thrombocyte depletion serum (Cedarlane, CLAD31440) versus normal rabbit serum (Cedarlane, CLSD403) was injected intra venously 24 hours before imaging.
Mice used for IVM were 8-10 weeks old weighted an average of 20 g. Mice in each experiment were of the same sex. If not specified otherwise, mice were generally treated pharmacologically or with neutralizing antibodies 20 min before imaging. Mice were anesthetized with a mixture of ketamine hydrochloride (200 mg/kg, Rogar/SBT) and xylazine hydrochloride (10 mg/kg, MTC Pharmaceuticals). After anesthesia, the tail vein was cannulated for administration of additional anesthetic, antibodies, or other reagents in certain experiments.
The pouch model IVM (FIG. 1) was prepared with the mouse in supine position. Thermal support was given with a heated stage to maintain 37° C. body temperature. The fur and skin above the ventral abdominal wall were aseptically cleaned with 70% ethanol and then removed. Care was taken not to open the peritoneal cavity. If the peritoneal cavity was accidentally opened, the mouse was immediately euthanized. Staining antibody or dye was intraperitoneally injected with a 28G needle in midline about 10 mm above the symphysis. After withdrawing the needle, a suture was placed to seal the hole caused by the injection. This suture was then used to immobilize a part of the peritoneum onto the coverslip. For this, the mouse was placed in a semi-prone position. Placing a cotton tip with slight top to bottom pressure helped to further increase imaging stability yet preserved a connection between the imaging pouch and peritoneal cavity so that peritoneal fluid movement was preserved. The closed pouch was prepared by applying more pressure on the cotton tip which allowed us to separate the pouch from the peritoneal cavity in terms of fluid movement. After IVM, all mice were immediately euthanized.
Images were exported as uncompressed .tif files and analyzed using ImageJ (55). Tracking was generally performed in an automated fashion using the TrackMate plugin (56). The cell shown in FIG. 1J was tracked manually. Cell counts and injury size was measured manually in ImageJ. Three-dimensional visualizations and volume quantifications were performed in Imaris software. […]

[3] = test system: macrophage disappearance reaction; conditions: intraperitoneal administration; hypersensitivity reaction or Escherichia coli; cited from earlier work
[4] = test system: cells isolated from abdominal cavity (peritoneal fluid sample); assay: Aggregometry of human peritoneal fluid cells; type: cell-based; conditions: ATPgs 100 uM, CaCl 2 mM, Poly(I)/Poly(C) 2 mg/ml; phase contrast
Description: Cells were isolated from abdominal cavity by laparotomy or laparascopy, lavaged with 200 ml saline and stored on ice. The cell samples were transferred through 70 um filters into 50 ml falcon tubes and spun at 300 g for 5 min at 4 degree. The pellet was resuspended in HBSS without Ca and without Mg. For aggregometry cells were exposed to: EDTA final concentration 2 mM; ATPgs final concentration 100 uM; CaCl final concentration 2 mM; and Poly(I)/Poly(C) final concentration 2 mg/ml. The final volume of 100 uL was attained with HBSS. Cells from one patient were exposed to three different conditions: EDTA alone (negative control); ATP/Poly(C); ATP/Poly(I). Image with phase contrast was captured (FIG. 14).

[5] = test system: focal thermal lesions of liver; assay: Focal thermal hepatic injury healing; type: in vivo, mouse; conditions: 7 d after injury
Description: Intravital liver imaging was performed as previously described (45). Exposed tissues were visualized with a Leica SP8 DIVE inverted microscope equipped with 4 Tune, a tunable in vivo detection system and a multiphoton light path. All images shown here were acquired using a HC FLUOTAR L 25×/0.95 W objective with water as immersion medium and 2× digital zoom. Fluorescent moieties were excited with a tunable InSight ×3 ultrafast laser (Spectra-Physics) at 800-1000 nm. Signal was detected using external, extremely sensitive non-descanned hybrid detectors. Second harmonic generation by collagen was recorded by tuning the detector to excitation wavelength divided by two ±20 nm. Leica LAS X software was used to drive the microscope.
(§1) For surgical procedures, mice were 8-12 weeks old with a body weight >20 g. Mice in each experiment were of the same sex. Mice were treated before surgery with poly(I), poly(C), liposomes, or diphtheria toxin as described above. Anesthesia was induced and maintained with isoflurane. Eye lubricant was topically applied and buprenorphine (0.1 mg/kg) was subcutaneously administered.
Focal thermal injury in the liver was performed as previously described (49). In brief, a mini-laparotomy was made just below the xyphoid to expose the liver. Three focal injuries were induced on the surface of the liver using the tip of a heated 30G needle mounted on an electrocautery device. […]

[6] = test system: peritoneal adhesions; assay: Peritoneal-button injury model of post-surgical peritoneal adhesions; type: in vivo, mouse
Description: as §1
For the peritoneal button injuries, skin was incised in midline. The peritoneal cavity was accessed through midline laparotomy. Standardized lesions were induced as previously described (47). In brief, a small portion of the peritoneum was grasped and ligated at its base using 4-0 Prolene suture (Ethicon), creating a standardized peritoneal button. This was repeated for a total of four buttons, one in each quadrant. Finally, peritoneum and skin were sutured with 6-0 Prolene (Ethicon) running suture.
Prior to sacrifice, mice were anesthetized (10 mg/kg xylazine hydrochloride and 200 mg/kg ketamine hydrochloride). Laparotomies were performed in an inverted U-shape. Adhesion were scored based on their tensile strength and vascularization (Table 2) as previously described (51). The animal was subsequently euthanized and perfused with 2 mM EDTA and 4% PFA containing PBS. Peritoneal buttons/adhesions were excised and post-fixated in 4% PFA containing PBS for 2-4 hours. Tissue staining and clearing was performed as previously described (52). […] Then the biopsies were incubated with fluorescently conjugated monoclonal antibodies for 1-4 days at 4° C. on a rotation device. […] Signal was detected using external, non-descanned hybrid detectors. Second harmonic generation by collagen was recorded by tuning the detector to excitation wavelength divided by two ±20 nm. […]
Mouse peritoneal lavage was performed in anesthetized animals by injection and aspiration of three times 5 ml of sterile ice-cold PBS containing 2 mM EDTA into the peritoneal cavity and subsequent retrieval. […] Samples were run using BD FACS Canto flow cytometer and analyzed using FlowJo software (Tree Star). […]

[7] = test system: focal thermal injury of the parietal peritoneum; assay: Peritoneal focal thermal injury healing; type: in vivo, mouse; conditions: 3 days after injury; wound area and mesothelial coverage; poly(C) control
Description: Abdominal-wall-flap IVM was used to visualize the mesothelium and epigastric blood vessels (FIG. 2A, FIG. 3, F-I). Mice were placed in supine position on heated stage to maintain 37° C. body temperature. The fur and skin above the ventral abdominal wall were removed and then aseptically cleaned with 70% ethanol. Staining antibodies (anti-mouse podoplanin and anti-mouse F4/80 as described above) were injected. After mice were incubated for 10 min on a heated stage, the peritoneum was incised with an inverted U-shaped incision ranging from directly below the xyphoid process to the inguinal ligament on both sides. This created a perfused flap of peritoneum and the rectus abdominis muscles. The flap was washed with 1 ml of PBS and placed directly on the glass coverslip of the heated stage for imaging of abdominal wall or epigastric blood vessels.
as §1
The peritoneal focal thermal injury was adapted from the focal thermal liver injury that was previously described (46). The skin was incised in midline. […]

[8] = intravital imaging following poly(I) administration

In the case of `O=C(O)CN(CCN(CC(=O)O)CC(=O)O)CC(=O)O` [EDTA], the “macrophage aggregation in vitro” value [1] is reported as “inhibited”.
In the case of `Nc1ncnc2c1ncn2[C@@H]1O[C@H](COP(=O)(O)OP(=O)(O)OP(=O)(O)O)[C@@H](O)[C@H]1O` [adenosine triphosphate], the “macrophage aggregation in vitro” value [1] is reported as “accelerate macrophage aggregation”.
In the case of `CC1CNc2c(cccc2S(=O)(=O)N[C@@H](CCCNC(=N)N)C(=O)N2CC[C@@H](C)C[C@@H]2C(=O)O)C1` (some centres unmarked) [argatroban, Argatroban], the “number of macrophages attaching/aggregating at the injury (normalized macrophage count)” value [2] is reported as “did not replicate this effect”.
In the case of Heparin, the macrophage disappearance reaction [3] is given as “inhibit the macrophage disappearance reaction” and the “number of macrophages attaching/aggregating at the injury (normalized macrophage count)” value [2] is given as “significantly reduced the number of attaching cells”.
For Hirudin, the “number of macrophages attaching/aggregating at the injury (normalized macrophage count)” value [2] was “did not replicate this effect”.
In the case of Polycytidylic acid [Poly(C)], the “aggregates of human peritoneal fluid cells” value [4] is reported as “large aggregate observed”.
With Polyinosinic acid [poly(I)] the “healing of focal thermal lesions of liver” value [5] was “similarly affected”, the “number of macrophages attaching/aggregating at the injury (normalized macrophage count)” value [2] was “significantly decreased macrophage aggregation” and the “initial adhesion to the wound” value [2, 8] was “left relatively intact”. The “macrophage-macrophage aggregate formation over time” value [2, 8] was “significant decrease”, the “macrophage aggregation in vitro” value [1] was “prevent macrophage aggregation in vitro” and the “reduction of cavity macrophage numbers in the peritoneal lavage after surgery” value ([6]; 3 hours post-surgery, flow cytometry) was “only partially inhibited”. The “recruitment of cavity macrophage aggregates from the peritoneal fluid to the buttons” value ([6]; within 3 hours post-surgery) was “could be reduced”, the “number and tenacity of peritoneal adhesions” value ([6]; within 7 days post-surgery) was “significantly reduced” and the “healing of focal thermal injury of the parietal peritoneum” value [7] was “prolonged healing”. The “aggregates of human peritoneal fluid cells” value [4] was “no aggregates”.
